According to US10351501B2, “Gem difluorocompounds as depigmenting or lightening agents” (TFCHEM, priority 2015, dated 2019):
Blank lines part the entries; values can stand above or below the compound they belong to.

Tests used:
[1] = tested on: human tyrosinase; test: HumanLike Tyrosinase Assay kit (Feldan), L-Tyrosine to dopachrome, OD at 490 nm; format: biochemical; details: for OD at 490 nm: 1.12 mM
Protocol: The efficacy of compound 16 was evaluated by the inhibition of human tyrosinase in tubo and compared to the compound 11.
The assay was performed with a ready-to-use kit from Feldan Inc (Canada): the HumanLike Tyrosinase Assay kit (ref A021-a-001Kit).
The protocol was performed as described in the instructions for use of the manufacturer. Briefly, this kit is intended for the determination of human tyrosinase activity in presence of different inhibitors. The kit measures the conversion of L-Tyrosine into a dopachrome complex absorbing at 490 nm. The time course of the assay is 20 minutes, after which the results are analyzed and compared.
The compounds 11 and 16 have been tested at a final concentration of 1.12 mM.
The measured absorbances at 490 nm are reported in the table 5 and plotted in function of time in the FIG. 1.
Moreover for each compound the efficacy as tyrosinase inhibitor was calculated using the following formula: […]

[2] = Antioxidant activity by the spectrophotometric method of the free radical DPPH•; details: molar ratio antioxidant/DPPH•; absorbance at T = 30 min
Excerpt: The aim of the study was to evaluate the antioxidant activity of compound 11 by the spectrophotometric method of the free radical DPPH• (2,2-diphenyl-1-picrylhydrazyl). Indeed, antioxidants react with DPPH^• (purple), a stable free radical which is reduced to DPPH-H (yellow), and in consequence, the absorbance is decreased from the DPPH^• radical to the DPPH-H form. The degree of discoloration indicates the scavenging potential of the antioxidant compounds in terms of hydrogen donating ability (Popovici et al. Revue de génie industriel 2009, 4, 25-39).
The tested compounds were: Trolox ((±)-6-hydroxy-2,5,7,8-tetramethylchromane-2-carboxylic acid, Sigma Aldrich), as reference, and compound 11.
A stock solution of DPPH• was prepared at 200 μmol/mL in methanol and diluted in methanol in order to have a final concentration of around 150 μmol/mL to obtain a DO close to 0.9 in a plate of 96 wells. The antioxidant stock solutions were prepared at 1 mg/mL in methanol and the tested solutions were prepared from these antioxidant stock solutions as described in Table 7 below.
50 μL of each solution of antioxidant was added to the wells. Then, 200 μL of DPPH^• was added to each well.
The blank was prepared with only 250 μl of methanol and the negative control was prepared with 200 μL DPPH• and 50 μL of methanol.
The analysis was started immediately after the addition of DPPH• lasting for 2 hours (readings every 20 seconds). The absorbance was read at 515 nm. Each experiment was performed three times and had shown that the absorbance decreases while the concentration of antioxidant increased.
The activity of DPPH• is a percentage calculated as the ratio of A/An×100%.
The EC50 is expressed as a molar ratio of antioxidant (compound 11)/DPPH• (Popovici et al. Revue de génie industriel 2009, 4, 25-39). The EC50 was determined from the graph representing the percentage of DPPH• in function of the above mentioned molar ratio (moles of compound 11/moles of DPPH•).
The antioxidant activity of compound 11 was compared to that of Trolox used as a reference (considered as 100%).

[3] = In vitro human skin absorption, Franz diffusion cell: quantification in the receptor fluid (flux); format: in vitro ADME; details: 200 μl at 2 mg/ml in water on human skin explant; receptor fluid T0 h to T24 h
Excerpt: The aim of this study was to evaluate the absorption of compound 11 applied to excised human skin.
In vitro method using a Franz diffusion cell allows measuring the diffusion of chemicals into and across skin.
The tested compound is applied to the surface of a human skin explant separating the two chambers of a Franz diffusion cell. The compound remains on the skin for a specified time under specified conditions. The receptor fluid is sampled at time points throughout the experiment and analyzed for the tested compound. The skin may also be fractioned for separate analysis in epidermis or dermis layers.
The transcutaneous absorption was measured on human skin collected from the abdominoplasty of a single donor. At reception, the skin was defatted and cut in several fragments in order to perform Franz experiment. […]
The tested compounds were quantified, at T0 h and T24 h in the receptor solution bathing the inner surface of the skin (determination of flux), or at T24 h in the fractionated skin extracts (epidermis or dermis). […]
Sampling: 500 μL from the receptor fluid were removed at T0 h (replaced by Ringer solution) and at T24 h. These samples were analyzed by LC-MS/MS method for quantification of compound 11 and deoxyarbutin (results not shown). The quantity measured allowed to calculate a flux and to compare the absorption profile across the skin of compound 11 and deoxyarbutin.

[4] = biological target: T1, human recombinant tyrosinase (Homo sapiens, UniProt P14679); test: Inhibition of human tyrosinase in tubo (L-DOPA substrate, OD at 477 nm), IC50; format: biochemical; details: Tyrosinase Concentration 300 U/mL
T1 sequence (P14679 19-529): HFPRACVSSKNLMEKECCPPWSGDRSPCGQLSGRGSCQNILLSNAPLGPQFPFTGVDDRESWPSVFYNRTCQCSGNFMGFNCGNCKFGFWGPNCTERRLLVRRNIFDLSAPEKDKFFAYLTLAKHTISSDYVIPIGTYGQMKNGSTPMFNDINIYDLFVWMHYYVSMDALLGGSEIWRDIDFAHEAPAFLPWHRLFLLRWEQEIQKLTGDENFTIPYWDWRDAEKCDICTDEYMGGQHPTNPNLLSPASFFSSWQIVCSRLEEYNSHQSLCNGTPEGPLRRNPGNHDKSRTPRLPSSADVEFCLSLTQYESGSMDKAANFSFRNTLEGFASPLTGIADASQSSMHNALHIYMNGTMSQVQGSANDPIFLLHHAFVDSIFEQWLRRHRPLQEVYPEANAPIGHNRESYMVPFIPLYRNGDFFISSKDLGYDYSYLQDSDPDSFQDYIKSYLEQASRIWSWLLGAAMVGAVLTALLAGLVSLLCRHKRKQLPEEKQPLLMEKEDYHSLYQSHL
Protocol: Substrate solution: L-DOPA (1 mg/mL) Solution B (L-DOPA 20 mg/Purified water up to 20 mL)
Preparation of Test Solutions (for IC50 Test—Examples for Deoxyarbutin)
Inhibitors solutions deoxyarbutin (1 mg/mL): Deoxyarbutin 20 mg in purified water up to 20 mL
This assay used a 96-well plate. Test solutions and controls were made several times.
The results were calculated from the OD measured at time point 20 min.
The determination of half maximal inhibitory concentration (IC50) was performed using the following formula.

[5] = In vitro stability: hydroquinone released in various chemical conditions (HPLC-UV/DAD); format: physicochemical
Protocol: The stability of compound 11 was evaluated by the released of hydroquinone, which is a potentially toxic compound, in different chemical conditions (extreme conditions, simulating the application of these molecules on the skin) and it was compared to the deoxyarbutin.
This study involved different tests as degradation test and chemical stability (various chemical solutions, pH and temperatures).
Analytical Method (HPLC-UV/DAD Method)
Column Atlantis dC18 150 mm*4.6 mm*3 μm Waters, 30° C. Injection 50 μl, 25° C. λ: 220 nm, 265 nm, 285 nm. A-Acetonitrile B-Water; 0.8 ml/min; elution gradient: […]
This analytical method gave linear response for compound 11, Deoxyarbutin and Hydroquinone from 25 ng/mL to 1000 ng/mL. Dilution of samples had to be taken into account for each stability study to calculate the LLOQ of each compound.
The tested compounds are incubated in different solutions, at different times (see table 1). Then the analytical method was used to quantify remaining compounds and potential hydroquinone released (as possible degradation of compounds).
Hydroquinone (HQ) apparition is expressed as a percentage of initial compound 11 or Deoxyarbutin. The calculation was done in molar units and the limit of quantification fluctuates with the initial concentration.

OD at 490 nm ([1]; time 0 min): 0.0000
OD at 490 nm ([1]; time 1 min): 0.0105
OD at 490 nm ([1]; time 2 min): 0.0185
OD at 490 nm ([1]; time 3 min): 0.0285
OD at 490 nm ([1]; time 4 min): 0.0385
OD at 490 nm ([1]; time 5 min): 0.0505
OD at 490 nm ([1]; time 6 min): 0.0605
OD at 490 nm ([1]; time 7 min): 0.0720
OD at 490 nm ([1]; time 8 min): 0.0815
OD at 490 nm ([1]; time 9 min): 0.0925
OD at 490 nm ([1]; time 10 min): 0.1025
OD at 490 nm ([1]; time 11 min): 0.1125
OD at 490 nm ([1]; time 12 min): 0.1225
OD at 490 nm ([1]; time 13 min): 0.1330
OD at 490 nm ([1]; time 14 min): 0.1435
OD at 490 nm ([1]; time 15 min): 0.1545
OD at 490 nm ([1]; time 16 min): 0.1650
OD at 490 nm ([1]; time 17 min): 0.1765
OD at 490 nm ([1]; time 18 min): 0.1885
OD at 490 nm ([1]; time 19 min): 0.2000
OD at 490 nm ([1]; time 20 min): 0.2115
Inhibitor efficacy (%) ([1]; Compound at 1.12 mM, T = 20 min): 13.7%
Structure (SMILES): Oc1ccc(OC2CC(O)CCC2(F)F)cc1 (stereo not shown) [Compound 16]

EC50 (Ratio antioxidant/DPPH•) Mean [2]: 0.240
Structure (SMILES): Cc1c(C)c2c(c(C)c1O)CCC(C)(C(=O)O)O2 (racemic) [Trolox, (±)-6-hydroxy-2,5,7,8-tetramethylchromane-2-carboxylic acid, reference compound]

Flux, mean (n = 3) [3]: 3.98 μg/h/cm^2
Calculated IC50 Mean ([4]; mean of 4 tests): 53 mg/L
IC50 ([4]; read-out: IC50): 272 µM
Calculated IC50 Test #1 ([4]; time 20 min): 26 mg/L
Calculated IC50 Test #2 ([4]; time 20 min): 45 mg/L
Calculated IC50 Test #3 ([4]; time 20 min): 80 mg/L
Calculated IC50 Test #4 ([4]; time 20 min): 60 mg/L
% Hydroquinone released ([5]; Ringer's solution pH 5.5 at 70° C., 24 H): 11.83%
% Hydroquinone released ([5]; Ringer's solution pH 8.5 at 70° C., 24 H): 88.76%
% Hydroquinone released ([5]; Synthetic perspiration at RT, 48 H): 128.61%
% Hydroquinone released ([5]; Water at room temperature, 14 Days): 4.20%
Structure (SMILES): Oc1ccc(OC2CCCCO2)cc1 (stereo not shown) [Deoxyarbutin, reference compound]
